Key:
Oxytocin receptor = target: T1, Oxytocin receptor (Homo sapiens, UniProt P30559); test: Antagonist activity at human OTR expressed in HEK293 cells assessed as decrease in calcium flux measured after 10 mins in […] by Fluo-4 dye based microplate reader based assay; assay type: functional, cell-based
T1 sequence (P30559 whole entry): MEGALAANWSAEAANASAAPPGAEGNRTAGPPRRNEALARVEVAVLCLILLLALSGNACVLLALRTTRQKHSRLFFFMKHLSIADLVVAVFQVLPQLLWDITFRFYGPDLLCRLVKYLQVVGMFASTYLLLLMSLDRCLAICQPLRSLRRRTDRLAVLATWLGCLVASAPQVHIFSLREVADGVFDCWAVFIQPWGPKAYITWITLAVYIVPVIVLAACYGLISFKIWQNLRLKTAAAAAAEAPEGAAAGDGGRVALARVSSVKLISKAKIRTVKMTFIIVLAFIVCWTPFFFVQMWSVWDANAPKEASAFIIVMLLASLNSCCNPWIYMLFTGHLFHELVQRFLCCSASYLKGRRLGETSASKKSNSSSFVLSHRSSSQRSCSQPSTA

[1] = Plasma concentration in Sprague-Dawley rat by LC-MS/MS analysis; assay type: ADME, cell-free
[2] = Drug concentration in Sprague-Dawley rat brain by LC-MS/MS analysis; assay type: ADME, tissue-based; settings: in vivo
[3] = Unbound brain-to-plasma concentration ratio in Sprague-Dawley rat by LC-MS/MS analysis; assay type: ADME, cell-free; settings: read-out: K(p,uu,brain)
Rattus norvegicus = test: Anti-premature ejaculation activity in anesthetized oxytocin-induced uterine contraction Sprague-Dawley rat model assessed as decrease in intraluminal uterine pressure at 30 mg/kg, po treated for 20 mins and 1 hr later treated with oxytocin and measured for 15 to 30 mins relative to control; assay type: functional
[4] = Unbound fraction in Sprague-Dawley rat plasma by LC-MS/MS analysis; assay type: ADME, cell-free
[5] = Unbound fraction in Sprague-Dawley rat brain by LC-MS/MS analysis; assay type: ADME, tissue-based
[6] = AUC (0 to 24 hrs) in anesthetized oxytocin-induced uterine contraction Sprague-Dawley rat model at 30 mg/kg, po; assay type: ADME, organism-based; set-up: dose 30 mg/kg, time < 24 hr, route oral; settings: in vivo
Vasopressin V1a receptor = Vasopressin V1a receptor (Homo sapiens, UniProt P37288); test: Antagonist activity at human vasopressin V1A receptor expressed in HEK293 cells assessed as decrease in vasopressin-stimulated calcium flux measured after 10 mins by Fluo-4 dye based microplate reader based assay; assay type: functional, cell-based
[7] = Half-life in Sprague-Dawley rat at 2 mg/kg, po measured for 24 hrs by LC-MS/MS analysis; assay type: ADME, organism-based; settings: in vivo
[8] = AUC (0 to 24 hrs) in Sprague-Dawley rat at 2 mg/kg, po by LC-MS/MS analysis; assay type: ADME, organism-based; set-up: time < 24 hr, dose 2 mg/kg, route oral; settings: in vivo
[9] = Cmax in Sprague-Dawley rat at 2 mg/kg, po measured for 24 hrs by LC-MS/MS analysis; assay type: ADME, organism-based; set-up: dose 2 mg/kg, route oral; settings: in vivo
Vasopressin V1b receptor = target: T2, Vasopressin V1b receptor (Homo sapiens, UniProt P47901); test: Antagonist activity at human vasopressin V1B receptor expressed in HEK293 cells assessed as decrease in vasopressin-stimulated calcium flux measured after 10 mins by Fluo-4 dye based microplate reader based assay; assay type: functional, cell-based
T2 sequence (P47901 whole entry): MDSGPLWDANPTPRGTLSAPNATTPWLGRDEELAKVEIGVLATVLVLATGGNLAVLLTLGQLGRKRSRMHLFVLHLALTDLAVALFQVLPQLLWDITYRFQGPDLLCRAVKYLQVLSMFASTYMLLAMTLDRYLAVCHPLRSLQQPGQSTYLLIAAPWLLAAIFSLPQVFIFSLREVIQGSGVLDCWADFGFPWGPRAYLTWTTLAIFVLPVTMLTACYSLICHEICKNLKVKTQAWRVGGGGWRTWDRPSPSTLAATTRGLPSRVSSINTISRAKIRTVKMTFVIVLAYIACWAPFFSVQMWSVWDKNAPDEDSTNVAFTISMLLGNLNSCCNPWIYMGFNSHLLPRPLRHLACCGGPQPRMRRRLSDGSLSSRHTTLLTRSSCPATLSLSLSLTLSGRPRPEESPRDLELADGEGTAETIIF

[10] = Clearance in Sprague-Dawley rat at 1 mg/kg, iv measured for 24 hrs by LC-MS/MS analysis; assay type: ADME, organism-based; settings: in vivo
[11] = target: Voltage-gated inwardly rectifying potassium channel KCNH2 (Homo sapiens, UniProt Q12809); test: Inhibition of human ERG
Sequence of Voltage-gated inwardly rectifying potassium channel KCNH2 (Q12809 whole entry): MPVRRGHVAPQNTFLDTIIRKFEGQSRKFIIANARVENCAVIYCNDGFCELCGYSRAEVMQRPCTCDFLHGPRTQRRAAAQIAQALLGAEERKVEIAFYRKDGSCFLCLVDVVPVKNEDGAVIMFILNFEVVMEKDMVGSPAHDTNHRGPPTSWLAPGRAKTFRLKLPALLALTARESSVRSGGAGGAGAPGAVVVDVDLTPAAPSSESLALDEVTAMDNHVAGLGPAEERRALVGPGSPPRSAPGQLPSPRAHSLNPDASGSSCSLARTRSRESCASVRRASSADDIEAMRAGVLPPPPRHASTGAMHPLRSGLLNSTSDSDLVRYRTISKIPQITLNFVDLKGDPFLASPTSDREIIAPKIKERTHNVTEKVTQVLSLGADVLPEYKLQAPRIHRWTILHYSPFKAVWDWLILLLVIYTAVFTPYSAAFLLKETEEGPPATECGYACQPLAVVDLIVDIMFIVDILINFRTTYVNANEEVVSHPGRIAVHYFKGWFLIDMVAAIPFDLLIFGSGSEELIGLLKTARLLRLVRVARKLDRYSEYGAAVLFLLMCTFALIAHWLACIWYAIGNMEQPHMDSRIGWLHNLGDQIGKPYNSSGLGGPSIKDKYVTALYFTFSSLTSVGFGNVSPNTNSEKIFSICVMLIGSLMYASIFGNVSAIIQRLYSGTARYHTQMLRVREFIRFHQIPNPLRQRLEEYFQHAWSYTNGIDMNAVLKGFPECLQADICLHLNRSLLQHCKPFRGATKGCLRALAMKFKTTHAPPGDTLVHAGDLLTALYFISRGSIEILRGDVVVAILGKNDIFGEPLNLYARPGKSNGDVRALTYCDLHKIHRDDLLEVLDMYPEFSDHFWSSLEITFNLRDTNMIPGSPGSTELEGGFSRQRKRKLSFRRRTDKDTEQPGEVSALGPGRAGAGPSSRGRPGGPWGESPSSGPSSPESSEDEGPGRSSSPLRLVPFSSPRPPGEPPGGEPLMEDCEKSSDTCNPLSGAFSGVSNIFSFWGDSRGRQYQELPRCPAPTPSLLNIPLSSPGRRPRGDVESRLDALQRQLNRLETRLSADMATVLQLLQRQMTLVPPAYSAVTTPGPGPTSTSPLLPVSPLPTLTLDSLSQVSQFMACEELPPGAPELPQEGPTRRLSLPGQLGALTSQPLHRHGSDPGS

Sequence of Vasopressin V1a receptor (P37288 whole entry): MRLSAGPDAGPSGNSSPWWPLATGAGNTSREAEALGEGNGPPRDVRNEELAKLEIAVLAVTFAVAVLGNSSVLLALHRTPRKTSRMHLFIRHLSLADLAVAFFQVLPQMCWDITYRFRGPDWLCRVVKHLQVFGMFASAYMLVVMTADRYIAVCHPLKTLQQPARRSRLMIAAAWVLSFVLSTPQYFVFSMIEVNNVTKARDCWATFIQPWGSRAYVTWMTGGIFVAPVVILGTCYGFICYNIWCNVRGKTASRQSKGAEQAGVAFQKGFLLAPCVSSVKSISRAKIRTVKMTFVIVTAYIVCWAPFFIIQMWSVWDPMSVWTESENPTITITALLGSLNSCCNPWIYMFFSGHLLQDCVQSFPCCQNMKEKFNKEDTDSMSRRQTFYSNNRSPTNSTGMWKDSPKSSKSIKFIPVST

| Structure (SMILES) | IC50 (Oxytocin receptor) [nM] | IC50 (Vasopressin V1a receptor) [nM] | also measured |
| --- | --- | --- | --- |
| COc1ccc(-n2c(COC3CCOCC3)nnc2N2C[C@@H]3C[C@]3(c3ccc(F)cc3Cl)C2)cn1 | 826 | – | – |
| COCc1nnc(C2CCN(Cc3ccc(F)cc3Cl)CC2)n1-c1ccc(OC)nc1 | 2790 to 3000 | – | – |
| COCc1nnc(N2CC3COCC3(c3ccc(F)cc3Cl)C2)n1-c1ccc(OC)nc1 (stereo not given) | 2560 | – | – |
| COCc1nnc(N2CC3CN(c4ccc(F)cc4Cl)C3C2)n1-c1ccc(OC)nc1 (stereo not given) | 121 | – | – |
| COCc1nnc(N2C3CCC2CC(Oc2ccc(F)cc2Cl)C3)n1-c1ccc(OC)nc1 (stereo not given) | 1230 | – | – |
| COCc1nnc(N2CC(Oc3ccc(F)cc3Cl)C2)n1-c1ccc(OC)nc1 | 23.2 | – | Cp [1]: 699 ng/mL; Ct [2]: 179 ng/g; Kp uu [3]: 0.064; inhibition in vivo at 30 mg/kg (Rattus norvegicus): 76.5%; fraction unbound [4]: 0.0664; fraction unbound [5]: 0.0165; AUC(0-t) at 24 h [6]: 39500 ng·h/mL |
| COc1ccc(-n2c(CO[C@@H]3CCOC3)nnc2N2C[C@@H]3C[C@]3(c3ccc(F)cc3Cl)C2)cn1 | 223 | 1980 | – |
| COCc1nnc(N2CCN(Cc3ccc(F)cc3Cl)CC2)n1-c1ccc(OC)nc1 | 910 | – | – |
| COCc1nnc(N2CC3(CCc4cc(F)ccc4O3)C2)n1-c1ccc(OC)nc1 | 401 | – | – |
| COCc1nnc(N2C[C@H]3C[C@@H](Oc4ccc(F)cc4Cl)C[C@H]3C2)n1-c1ccc(OC)nc1 | 1380 | – | – |
| COc1ccc(-n2c(COCCF)nnc2N2C[C@@H]3C[C@]3(c3ccc(F)cc3Cl)C2)cn1 | – | 819 | – |
| COCc1nnc(N2C[C@@H]3C[C@]3(c3cccc(F)c3Cl)C2)n1-c1ccc(OC)nc1 | 30 | – | half-life [7]: 3.15 h; AUC(0-t) at 24 h [8]: 34 ng·h/mL; Cmax [9]: 15 ng/mL |
| COc1ccc(-n2c(C3CC3)nnc2N2C[C@@H]3C[C@]3(c3ccc(F)cc3Cl)C2)cn1 | 433 | 11000 | – |
| COCc1nnc(N2CC3CN(c4ccc(F)cc4Cl)CC32)n1-c1ccc(OC)nc1 (stereo not given) | 850 | – | – |
| COc1ccc(-n2c(CC#N)nnc2N2C[C@@H]3C[C@]3(c3ccc(F)cc3Cl)C2)cn1 | 235 | 769 | IC50 (Vasopressin V1b receptor): 44400 nM |
| CC[C@H](C)[C@@H]1C(=O)N[C@H](C2Cc3ccccc3C2)C(=O)N1[C@@H](C(=O)N1CCOCC1)c1ccc(C)nc1C [EPELSIBAN] | 9.2 | – | – |
| COCc1nnc(N2CCC(c3ccc(F)cc3Cl)C2)n1-c1ccc(OC)nc1 (stereo not given) | 27 | – | half-life [7]: 1.89 h; AUC(0-t) at 24 h [8]: 478 ng·h/mL; Cmax [9]: 204 ng/mL |
| COCc1nnc(N2CCC(c3ccc(F)cc3Cl)CC2)n1-c1ccc(OC)nc1 | 10 | – | clearance [10]: 45 mL/min/kg; half-life [7]: 2.39 h; AUC(0-t) at 24 h [8]: 767 ng·h/mL; Cmax [9]: 96 ng/mL |
| COCc1nnc(N2CC3(C2)OCc2cc(F)ccc23)n1-c1ccc(OC)nc1 | 6760 | – | – |
| COc1ccc(-n2c(CO[C@H]3CCOC3)nnc2N2C[C@@H]3C[C@]3(c3ccc(F)cc3Cl)C2)cn1 | 184 | – | – |
| COc1ccc(-n2c(C(F)F)nnc2N2C[C@@H]3C[C@]3(c3ccc(F)cc3Cl)C2)cn1 | – | 1870 | – |
| COCc1nnc(N2C[C@@H]3C[C@]3(c3ccc(F)cc3Cl)C2)n1-c1ccc2c(c1)OCO2 | – | 810 | – |
| CCOCc1nnc(N2C[C@@H]3C[C@]3(c3ccc(F)cc3Cl)C2)n1-c1ccc(OC)nc1 | 9.3 | 1760 | clearance [10]: 17.8 mL/min/kg; half-life [7]: 3.48 h; AUC(0-t) at 24 h [8]: 1020 ng·h/mL; Cmax [9]: 135 ng/mL; IC50 [11]: 6100 nM |

— ChEMBL document CHEMBL4364273, “Discovery of SHR1653, a Highly Potent and Selective OTR Antagonist with Improved Blood-Brain Barrier Penetration” (ACS Med Chem Lett, 2019)
